From patent publication US20210045385A1, “PYRIDAZINONE-SUBSTITUTED KETOXIMES AS HERBICIDES” (FMC Corporation, priority 2018, published 2021)

Tests used:
Assay type in all cases: in vivo
[1] = tested on: Italian ryegrass (Lolium multiflorum); test: Test A preemergence, visual plant response rating; details: for Ryegrass, Italian plant response rating: 125 g ai/ha, preemergence, 0 to 100 scale, 0 no effect, 100 complete control; for Ryegrass, Italian plant response rating (0 to 100 scale): 500 g ai/ha Preemergence, approx. 10 days
Outline: (§1)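 Greenhouse evaluation, approx. 10 days post-spray. Soil: loam + sand. Postemergence stage: 1–2 leaves, height 2–10 cm. Vehicle: non-phytotoxic solvent blend with surfactant. Score: visual injury on a 0 (no effect) to 100 (complete control) scale.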

[2] = tested on: barnyardgrass (Echinochloa crus-galli); test: Test A preemergence, visual plant response rating; details: for Barnyardgrass plant response rating: 125 g ai/ha, preemergence, 0 to 100 scale, 0 no effect, 100 complete control; for Barnyardgrass plant response rating (0 to 100 scale): 500 g ai/ha Preemergence, approx. 10 days
Outline: as §1

[3] = tested on: foxtail, giant (giant foxtail, Setaria faberii); test: Test A preemergence, visual plant response rating; details: for Foxtail, Giant plant response rating: 125 g ai/ha, preemergence, 0 to 100 scale, 0 no effect, 100 complete control; for Foxtail, Giant plant response rating (0 to 100 scale): 500 g ai/ha Preemergence, approx. 10 days
Outline: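 Ratings use a 0–100 visual scale (100 = complete control) against untreated controls, scored about 10 days after greenhouse treatment. Test chemicals were formulated in surfactant-containing non-phytotoxic solvent and applied either as soil spray after planting (preemergence) or onto one- to two-leaf, 2–10 cm plants (postemergence).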

kochia (Kochia scoparia) [4] = test: Test A preemergence, visual plant response rating; details: for Kochia plant response rating: 125 g ai/ha, preemergence, 0 to 100 scale, 0 no effect, 100 complete control; for Kochia plant response rating (0 to 100 scale): 500 g ai/ha Preemergence, approx. 10 days
Outline: as §1

[5] = tested on: pigweed (Amaranthus retroflexus); test: Test A preemergence, visual plant response rating; details: for Pigweed plant response rating: 125 g ai/ha, preemergence, 0 to 100 scale, 0 no effect, 100 complete control; for Pigweed plant response rating (0 to 100 scale): 500 g ai/ha Preemergence, approx. 10 days
Outline: as §1

[6] = tested on: ragweed (common ragweed, Ambrosia elatior); test: Test A preemergence, visual plant response rating; details: for Ragweed plant response rating: 125 g ai/ha, preemergence, 0 to 100 scale, 0 no effect, 100 complete control; for Ragweed plant response rating (0 to 100 scale): 500 g ai/ha Preemergence, approx. 10 days
Outline: as §1

[7] = tested on: Italian ryegrass (Lolium multiflorum); test: Test A postemergence, visual plant response rating; details: for Ryegrass, Italian plant response rating (0 to 100 scale): 500 g ai/ha, postemergence, 0 is no effect, 100 is complete control; for Ryegrass, Italian plant response rating: Postemergence, 125 g ai/ha, 0 to 100 scale (0 no effect, 100 complete control)
Outline: as §1

[8] = tested on: barnyardgrass (Echinochloa crus-galli); test: Test A postemergence, visual plant response rating; details: for Barnyardgrass plant response rating (0 to 100 scale): 500 g ai/ha, postemergence, 0 is no effect, 100 is complete control; for Barnyardgrass plant response rating: Postemergence, 125 g ai/ha, 0 to 100 scale (0 no effect, 100 complete control)
Outline: as §1

[9] = tested on: blackgrass (Alopecurus myosuroides); test: Test A postemergence, visual plant response rating; details: for Blackgrass plant response rating (0 to 100 scale): 500 g ai/ha, postemergence, 0 is no effect, 100 is complete control; for Blackgrass plant response rating: Postemergence, 125 g ai/ha, 0 to 100 scale (0 no effect, 100 complete control)
Outline: as §1

corn (Zea mays) = test: Test A postemergence, visual plant response rating; details: for Corn plant response rating (0 to 100 scale): 500 g ai/ha, postemergence, 0 is no effect, 100 is complete control; for Corn plant response rating: Postemergence, 125 g ai/ha, 0 to 100 scale (0 no effect, 100 complete control)
Outline: as §1

[10] = tested on: foxtail, giant (giant foxtail, Setaria faberii); test: Test A postemergence, visual plant response rating; details: for Foxtail, Giant plant response rating (0 to 100 scale): 500 g ai/ha, postemergence, 0 is no effect, 100 is complete control; for Foxtail, Giant plant response rating: Postemergence, 125 g ai/ha, 0 to 100 scale (0 no effect, 100 complete control)
Outline: as §1

[11] = tested on: galium (catchweed bedstraw, Galium aparine); test: Test A postemergence, visual plant response rating; details: for Galium plant response rating (0 to 100 scale): 500 g ai/ha, postemergence, 0 is no effect, 100 is complete control; for Galium plant response rating: Postemergence, 125 g ai/ha, 0 to 100 scale (0 no effect, 100 complete control)
Outline: as §1

kochia (Kochia scoparia) [12] = test: Test A postemergence, visual plant response rating; details: for Kochia plant response rating (0 to 100 scale): 500 g ai/ha, postemergence, 0 is no effect, 100 is complete control; for Kochia plant response rating: Postemergence, 125 g ai/ha, 0 to 100 scale (0 no effect, 100 complete control)
Outline: as §1

[13] = tested on: pigweed (Amaranthus retroflexus); test: Test A postemergence, visual plant response rating; details: for Pigweed plant response rating (0 to 100 scale): 500 g ai/ha, postemergence, 0 is no effect, 100 is complete control; for Pigweed plant response rating: Postemergence, 125 g ai/ha, 0 to 100 scale (0 no effect, 100 complete control)
Outline: as §1

[14] = tested on: ragweed (common ragweed, Ambrosia elatior); test: Test A postemergence, visual plant response rating; details: for Ragweed plant response rating (0 to 100 scale): 500 g ai/ha, postemergence, 0 is no effect, 100 is complete control; for Ragweed plant response rating: Postemergence, 125 g ai/ha, 0 to 100 scale (0 no effect, 100 complete control)
Outline: as §1

[15] = tested on: wheat (Triticum aestivum); test: Test A postemergence, visual plant response rating; details: for Wheat plant response rating (0 to 100 scale): 500 g ai/ha, postemergence, 0 is no effect, 100 is complete control; for Wheat plant response rating: Postemergence, 125 g ai/ha, 0 to 100 scale (0 no effect, 100 complete control)
Outline: as §1

[16] = tested on: barnyardgrass (Echinochloa crus-galli); test: Test B flooded paddy test, visual plant response rating; details: 250 g ai/ha, Flood, applied to paddy water, 2-leaf stage, evaluated after 13 to 15 days
Outline: (§2)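 Greenhouse paddy conditions applied: two-leaf plants, a 3 cm flood above the soil surface maintained throughout, and compound added to the water rather than the foliage. Plants were judged visually against controls at 13 to 15 days.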

[17] = tested on: ducksalad (Heteranhera limosa); test: as above; details: 250 g ai/ha, Flood, applied to paddy water, 2-leaf stage, evaluated after 13 to 15 days
Outline: as §2

rice (Oryza sativa) = test: as above; details: 250 g ai/ha, Flood, applied to paddy water, 2-leaf stage, evaluated after 13 to 15 days
Outline: as §2

[18] = tested on: sedge, umbrella (small-flower umbrella sedge, Cyperus difformis); test: as above; details: 250 g ai/ha, Flood, applied to paddy water, 2-leaf stage, evaluated after 13 to 15 days
Outline: as §2

SMILES | Ryegrass, Italian plant response rating [1] | Ryegrass, Italian plant response rating (0 to 100 scale) [1] | Barnyardgrass plant response rating [2] | Barnyardgrass plant response rating (0 to 100 scale) [2] | Foxtail, Giant plant response rating [3] | Foxtail, Giant plant response rating (0 to 100 scale) [3] | Kochia plant response rating (kochia (Kochia scoparia) [4]) | Kochia plant response rating (0 to 100 scale) (kochia (Kochia scoparia) [4]) | Pigweed plant response rating [5] | Pigweed plant response rating (0 to 100 scale) [5] | Ragweed plant response rating [6] | Ragweed plant response rating (0 to 100 scale) [6] | Ryegrass, Italian plant response rating (0 to 100 scale) [7] | Ryegrass, Italian plant response rating [7] | Barnyardgrass plant response rating (0 to 100 scale) [8] | Barnyardgrass plant response rating [8] | Blackgrass plant response rating (0 to 100 scale) [9] | Blackgrass plant response rating [9] | Corn plant response rating (0 to 100 scale) (corn (Zea mays)) | Corn plant response rating (corn (Zea mays)) | further results
CON=C(c1c(O)c(C)nn(C)c1=O)c1cccc2ccoc12 [Compound 61] | 30 | 80 | 0 | 0 | 0 | 10 | 0 | 0 | 0 | 0 | 0 | 70 | 70 | 10 | 20 | 0 | 20 | 10 | 0 | 0 | Foxtail, Giant plant response rating (0 to 100 scale) [10]: 20; Foxtail, Giant plant response rating [10]: 0; Galium plant response rating (0 to 100 scale) [11]: 80; Galium plant response rating [11]: 60; Kochia plant response rating (0 to 100 scale) (kochia (Kochia scoparia) [12]): 50; Kochia plant response rating (kochia (Kochia scoparia) [12]): 30; Pigweed plant response rating (0 to 100 scale) [13]: 80; Pigweed plant response rating [13]: 50; Ragweed plant response rating (0 to 100 scale) [14]: 30; Ragweed plant response rating [14]: 10; Wheat plant response rating (0 to 100 scale) [15]: 40; Wheat plant response rating [15]: 30; Plant response rating, Barnyardgrass (0 to 100 scale, 0 is no effect, 100 is complete control) [16]: 0; Plant response rating, Ducksalad (0 to 100 scale, 0 is no effect, 100 is complete control) [17]: 0; Plant response rating, Rice (0 to 100 scale, 0 is no effect, 100 is complete control) (rice (Oryza sativa)): 0; Plant response rating, Sedge, Umbrella (0 to 100 scale, 0 is no effect, 100 is complete control) [18]: 0
CO/N=C(/c1ccccc1F)c1c(O)c(C)nn(C)c1=O [Compound 62] | 10 | 40 | 0 | 0 | 0 | 0 | 0 | 0 | 0 | 0 | 0 | 30 | 20 | 0 | 0 | 0 | 10 | 10 | 0 | 0 | Foxtail, Giant plant response rating (0 to 100 scale) [10]: 10; Foxtail, Giant plant response rating [10]: 0; Galium plant response rating (0 to 100 scale) [11]: 70; Galium plant response rating [11]: 20; Kochia plant response rating (0 to 100 scale) (kochia (Kochia scoparia) [12]): 20; Kochia plant response rating (kochia (Kochia scoparia) [12]): 0; Pigweed plant response rating (0 to 100 scale) [13]: 30; Pigweed plant response rating [13]: 10; Ragweed plant response rating (0 to 100 scale) [14]: 40; Ragweed plant response rating [14]: 20; Wheat plant response rating (0 to 100 scale) [15]: 0; Wheat plant response rating [15]: 0; Plant response rating, Barnyardgrass (0 to 100 scale, 0 is no effect, 100 is complete control) [16]: 0; Plant response rating, Ducksalad (0 to 100 scale, 0 is no effect, 100 is complete control) [17]: 0; Plant response rating, Rice (0 to 100 scale, 0 is no effect, 100 is complete control) (rice (Oryza sativa)): 0; Plant response rating, Sedge, Umbrella (0 to 100 scale, 0 is no effect, 100 is complete control) [18]: 0
CON=C(c1cccc(F)c1)c1c(O)c(C)nn(C)c1=O [Compound 64] | 30 | 60 | 0 | 0 | 0 | 0 | 0 | 0 | 0 | 10 | 10 | 20 | 70 | 50 | 20 | 20 | 20 | 0 | 0 | 0 | Foxtail, Giant plant response rating (0 to 100 scale) [10]: 10; Foxtail, Giant plant response rating [10]: 0; Galium plant response rating (0 to 100 scale) [11]: 80; Galium plant response rating [11]: 70; Kochia plant response rating (0 to 100 scale) (kochia (Kochia scoparia) [12]): 60; Kochia plant response rating (kochia (Kochia scoparia) [12]): 20; Pigweed plant response rating (0 to 100 scale) [13]: 40; Pigweed plant response rating [13]: 20; Ragweed plant response rating (0 to 100 scale) [14]: 50; Ragweed plant response rating [14]: 20; Wheat plant response rating (0 to 100 scale) [15]: 0; Wheat plant response rating [15]: 0; Plant response rating, Barnyardgrass (0 to 100 scale, 0 is no effect, 100 is complete control) [16]: 0; Plant response rating, Ducksalad (0 to 100 scale, 0 is no effect, 100 is complete control) [17]: 0; Plant response rating, Rice (0 to 100 scale, 0 is no effect, 100 is complete control) (rice (Oryza sativa)): 0; Plant response rating, Sedge, Umbrella (0 to 100 scale, 0 is no effect, 100 is complete control) [18]: 0
